We go through one compound from ChEMBL document CHEMBL3259698, “Reductions in log P improved protein binding and clearance predictions enabling the prospective design of cannabinoid receptor (CB1) antagonists with desired pharmacokinetic properties” (J Med Chem, 2013).

The nature of data set [1]: Oral bioavailability in Sprague-Dawley rat. In kind it is ADME, organism-based. The note with it: in vivo.
Data set [2] deals with T1, Cytochrome P450 3A4 (Homo sapiens, UniProt P08684). The data set can be described thus: Inhibition of CYP3A4 in human hepatocytes. The format is ADME, cell-based, Hepatocyte.
For data set [3], the target named is Cannabinoid receptor 1 (Homo sapiens, UniProt P21554). In words: Binding affinity to human CB1 receptor expressed in CHO cells by radioligand displacement based scintillation counting analysis. In kind it is cell-based.
Data set [4] is described as follows: Elimination half life in iv dosed cynomolgus monkey. The note with it: in vivo, read-out: beta t1/2 (converted). In kind it is ADME, organism-based, Macaca fascicularis.
Data set [5] relates to Rattus norvegicus. The data set can be described thus: Antiobesity activity in rat assessed as reduction in body weight at 10 mg/kg, qd after 4 days. In kind it is functional. Also noted: scale not given: the % may be the effect or the level left.
For data set [6], the target named is Cytochrome P450 2C9 (Homo sapiens, UniProt P11712). The data set can be described thus: Inhibition of human recombinant CYP2C9. The format is ADME.
The nature of data set [7]: Lipophilicity, log P of the compound by HPLC analysis. In kind it is physicochemical.
The subject of data set [8] is Rattus norvegicus. The data set can be described thus: Reduction in food intake in nonfasted Sprague-Dawley rat at 10 mg/kg, po measured for 8 hrs. In kind it is functional. Set-up: scale not given: the % may be the effect or the level left.
Data set [9] in a line: Cmax in rat at 10 mg/kg, qd. In kind it is ADME, organism-based. Set-up: dose 10 mg/kg. The note with it: in vivo.
A short description of data set [10]: Terminal half life in Sprague-Dawley rat at 3 mg/kg, iv. The format is ADME, organism-based. To be noted: in vivo, read-out: beta t1/2 (converted). Set-up: dose 3 mg/kg, route intravenous.
A short description of data set [11]: Oral bioavailability in cynomolgus monkey. The format is ADME, organism-based, Macaca fascicularis. To be noted: in vivo.
Data set [12] concerns the target Cytochrome P450 2C19 (Homo sapiens, UniProt P33261). The data set can be described thus: Inhibition of human recombinant CYP2C19. In kind it is ADME.
Data set [13] is described as follows: Elimination half life in iv dosed dog. To be noted: in vivo, read-out: beta t1/2 (converted). In kind it is ADME, organism-based, Canis lupus familiaris.
Data set [14] in a line: AUC (0 to 24 hrs) in rat at 10 mg/kg, qd. The format is ADME, organism-based. Also noted: time < 24 hr, dose 10 mg/kg. To be noted: plasma.
In data set [15] the test system is Rattus norvegicus. In words: Antiobesity activity in rat assessed as reduction in food intake at 10 mg/kg. The format is functional. Also noted: scale not given: the % may be the effect or the level left.
The nature of data set [16]: Oral bioavailability in dog. In kind it is ADME, organism-based, Canis lupus familiaris. The note with it: in vivo.
The subject of data set [17] is Rattus norvegicus. The data set can be described thus: Reduction in food intake in nonfasted po dosed Sprague-Dawley rat measured for 8 hrs. In kind it is functional. To be noted: read-out: MED.
In data set [18] the target is T1, Cytochrome P450 3A4. In words: Inhibition of CYP3A4 in human liver microsomes. The format is ADME.

T1 sequence (P08684 whole entry): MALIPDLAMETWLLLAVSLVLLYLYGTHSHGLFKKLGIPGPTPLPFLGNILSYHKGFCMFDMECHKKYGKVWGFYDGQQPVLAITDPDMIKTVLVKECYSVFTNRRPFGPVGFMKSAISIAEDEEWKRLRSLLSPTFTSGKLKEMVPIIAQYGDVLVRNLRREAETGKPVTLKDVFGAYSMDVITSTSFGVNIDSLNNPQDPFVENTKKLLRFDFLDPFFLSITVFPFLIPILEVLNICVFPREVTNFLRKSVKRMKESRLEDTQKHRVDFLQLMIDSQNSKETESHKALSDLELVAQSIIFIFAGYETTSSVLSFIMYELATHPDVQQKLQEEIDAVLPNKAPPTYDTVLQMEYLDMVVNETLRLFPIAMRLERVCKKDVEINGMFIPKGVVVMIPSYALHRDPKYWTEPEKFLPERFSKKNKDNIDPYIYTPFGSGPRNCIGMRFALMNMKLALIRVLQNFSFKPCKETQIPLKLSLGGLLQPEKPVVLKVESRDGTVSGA
Chain of Cytochrome P450 2C9 (P11712 whole entry): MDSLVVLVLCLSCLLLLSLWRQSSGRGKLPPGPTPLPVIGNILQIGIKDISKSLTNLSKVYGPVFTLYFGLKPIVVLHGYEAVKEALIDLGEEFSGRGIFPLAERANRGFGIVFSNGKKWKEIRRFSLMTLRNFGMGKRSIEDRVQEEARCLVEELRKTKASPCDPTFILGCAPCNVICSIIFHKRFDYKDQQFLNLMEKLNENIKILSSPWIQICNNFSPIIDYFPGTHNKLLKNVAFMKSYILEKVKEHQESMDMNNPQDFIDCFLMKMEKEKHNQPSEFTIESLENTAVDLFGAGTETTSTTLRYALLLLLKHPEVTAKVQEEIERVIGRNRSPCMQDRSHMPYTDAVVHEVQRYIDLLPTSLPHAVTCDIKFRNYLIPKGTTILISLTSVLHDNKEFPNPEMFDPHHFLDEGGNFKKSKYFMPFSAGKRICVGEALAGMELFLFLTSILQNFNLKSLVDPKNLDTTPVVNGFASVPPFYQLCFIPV
Chain of Cytochrome P450 2C19 (P33261 whole entry): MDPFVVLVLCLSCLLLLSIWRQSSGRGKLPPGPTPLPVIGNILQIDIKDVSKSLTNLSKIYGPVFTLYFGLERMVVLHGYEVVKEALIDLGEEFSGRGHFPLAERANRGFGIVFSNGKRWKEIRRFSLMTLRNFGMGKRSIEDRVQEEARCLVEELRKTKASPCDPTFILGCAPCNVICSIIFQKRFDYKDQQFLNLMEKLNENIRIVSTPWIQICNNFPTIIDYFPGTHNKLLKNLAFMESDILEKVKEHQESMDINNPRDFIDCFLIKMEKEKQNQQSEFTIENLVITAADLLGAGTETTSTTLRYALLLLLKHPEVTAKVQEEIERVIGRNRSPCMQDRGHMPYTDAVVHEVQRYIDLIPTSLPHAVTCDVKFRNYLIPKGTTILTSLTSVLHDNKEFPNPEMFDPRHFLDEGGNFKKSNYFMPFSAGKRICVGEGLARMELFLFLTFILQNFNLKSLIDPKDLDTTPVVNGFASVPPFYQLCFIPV
Chain of Cannabinoid receptor 1 (P21554 whole entry): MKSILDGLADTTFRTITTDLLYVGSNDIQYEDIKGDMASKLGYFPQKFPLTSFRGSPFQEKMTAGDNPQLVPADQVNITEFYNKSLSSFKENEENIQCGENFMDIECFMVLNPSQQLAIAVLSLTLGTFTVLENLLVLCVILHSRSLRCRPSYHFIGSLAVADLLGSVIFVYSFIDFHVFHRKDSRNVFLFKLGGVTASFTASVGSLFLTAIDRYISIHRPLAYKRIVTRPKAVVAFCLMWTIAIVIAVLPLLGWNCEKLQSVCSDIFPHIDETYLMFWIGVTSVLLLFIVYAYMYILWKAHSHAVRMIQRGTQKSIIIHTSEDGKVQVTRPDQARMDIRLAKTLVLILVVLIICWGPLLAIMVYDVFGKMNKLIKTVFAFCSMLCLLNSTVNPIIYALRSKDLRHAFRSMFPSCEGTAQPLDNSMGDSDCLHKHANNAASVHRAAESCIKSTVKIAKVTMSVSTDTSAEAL

Usually bioavailability stands for the share of a dose that reaches the circulation, judged against a reference dose that is usually intravenous. As usually defined, the IC50 is the concentration that inhibits the measured activity by half. One may read the Ki as a measure of affinity in units of concentration, obtained from inhibition or displacement. As a reminder, the logP is the decadic logarithm of the partition coefficient of the neutral form, usually between octanol and water. As a reminder, the Cmax is the maximum level reached in the sampled fluid or tissue. The term AUC denotes the area under the concentration-time curve, a measure of exposure. On to `CCn1nc2c(-c3ccc(Cl)cc3)c(-c3ccncc3)c(=O)n(Cc3ccc(C(F)(F)F)nc3C)n2c1=O`, for which the bioavailability in [1] stood at 50%; in [11], 15%; in data set [16] it was 40%. Further, the half-maximal inhibitory concentration (IC50) was determined as 3 µM in data set [2], 4.2 µM in data set [6], 2.6 µM in data set [12] and 9.1 µM in data set [18]. In [3], the affinity, expressed as Ki, was 0.0045 µM. Moreover, the half-life in [4] is 6 h; in data set [10] it was 5 h; in data set [13] it was 38 h. Also, the values for the Activity in data set [5], in [8] and in data set [15] were 4%, 51% and 43%, respectively. The logP in data set [7] was found to be 3.9. Besides, the Cmax in data set [9] turned out to be 4 µM. In [14], this compound came in with an AUC at 24 h of 48 µM·h. In addition, the minimal effective dose in data set [17] was determined as 10 mg/kg.
